Target: Human recombinant Histone Deacetylase 8 (HDAC8) (Homo sapiens (Human), UniProt Q9BY41)
Assay: HDAC8 Enzymatic Assay (HDAC-Glo I/II luminescence)
Format: biochemical
Conditions: class symbols, Table 14; read-out: HDAC8 IC50
Method: HDAC-Glo™ I/II Assay Kit was purchased from Promega Corporation (Madison, Wis.), including the following components: HDAC-Glo I/II Buffer (25 mM Tris buffer, pH 8.0, supplemented with 137 mM: NaCl, 2.7 mM KCl, 1% v/v Triton X-100 and 1 mM: MgCl2), luminogenic substrates Boc-GAK(Ac)-aminoluciferin (HDAC-Glo I/II substrate), proprietary developer reagent (containing trypsin). Human recombinant Histone Deacetylase 8 (HDAC8) was purchased from Enzo Life Sciences (Plymouth Meeting, Pa.).
The HDAC8 reaction was performed at room temperature in white 384-well polystyrene, flat-bottom microtiter plate (Greiner Bio-one, Monroe, N.C.) in a final volume of 20 μL. Test compounds were first diluted serially in DMSO and 100 nL were transferred to the plate wells by Echo 550 (Labcyte, Sunnyvale, Calif.) before the addition of other reaction components. The final concentration of DMSO in the assay was 0.5%. The HDAC-Glo I/II assay reagent was prepared by rehydration of lyophilized HDAC-Glo I/II substrate in 10 mL. HDAC-Glo I/II assay buffer followed with the addition of 10 μL of developer reagent. 10 uL of 3 nM HDAC8 in the HDAC-Glo I/II assay buffer were first dispensed into the microliter plate containing the compounds and incubated at room temperature for 30 min. The reactions were initiated with the addition of 10 uL HDAC-Glo I/II assay reagent with Multidrop (Thermo, Waltham, Mass.). The final concentration of HDAC8 and HDAC-Glo I/II substrate in the reaction were 1.5 nM and 50 μM, respectively. The assay plate was mixed for 1 min by orbital shaking (500 rpm) and centrifuged for 1 min at 1500 rpm. After 15 min at room temperature, luminescence signals were measured on TopCount (Perkin Elmer). Wells with no compound served as the positive controls and wells containing no HDAC8 were used as negative controls. IC50 determination was performed by fitting the curve of percentage control activity versus the log of the compound concentration using the GraphPad Prism 6.0 software.

Chain of Human recombinant Histone Deacetylase 8 (HDAC8) (Q9BY41 whole entry): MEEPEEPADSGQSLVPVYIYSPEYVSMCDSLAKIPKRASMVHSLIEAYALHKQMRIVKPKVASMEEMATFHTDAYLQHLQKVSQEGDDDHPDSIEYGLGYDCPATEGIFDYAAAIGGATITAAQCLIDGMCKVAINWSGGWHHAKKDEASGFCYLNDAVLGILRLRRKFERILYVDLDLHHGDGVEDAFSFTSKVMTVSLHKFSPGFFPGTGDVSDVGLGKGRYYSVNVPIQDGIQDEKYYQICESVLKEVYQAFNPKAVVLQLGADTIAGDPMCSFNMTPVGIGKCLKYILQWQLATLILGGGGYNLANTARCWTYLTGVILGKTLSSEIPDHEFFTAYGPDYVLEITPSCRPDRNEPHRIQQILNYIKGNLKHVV

IC50	Compound
> 500 nM	O=C(NO)C(Cc1ccccc1)n1cc2ccc(N3CCCCC3)cc2n1 (centres unmarked) [Compound I-0052, N-hydroxy-3-phenyl-2-(6-(piperidin-1-yl)-2H-indazol-2-yl)propanamide]
200 to 500 nM	O=C(NO)C(Cc1ccccc1)n1cc2cncc(C#CC3CC3)c2n1 (centres unmarked) [Compound I-0053, 2-(7-(cyclopropylethynyl)-2H-pyrazolo[4,3-c]pyridin-2-yl)-N-hydroxy-3-phenylpropanamide]
> 500 nM	O=C(NO)C(Cc1ccccc1)n1cc2cncc(I)c2n1 (centres unmarked) [Compound I-0054, N-hydroxy-2-(7-iodo-2H-pyrazolo[4,3-c]pyridin-2-yl)-3-phenylpropanamide]
200 to 500 nM	O=C(NO)C(Cc1ccccc1)n1ncc2c(Cl)nccc21 (centres unmarked) [Compound I-0055, 2-(4-chloro-1H-pyrazolo[4,3-c]pyridin-1-yl)-N-hydroxy-3-phenylpropanamide]
> 500 nM	O=C(NO)C(Cc1ccccc1)n1cc2c(Cl)nccc2n1 (centres unmarked) [Compound I-0056, 2-(4-chloro-2H-pyrazolo[4,3-c]pyridin-2-yl)-N-hydroxy-3-phenylpropanamide]
200 to 500 nM	O=C(NO)C(Cc1ccccc1)n1cc2c(-c3ccncc3)cccc2n1 (centres unmarked) [Compound I-0058, N-hydroxy-3-phenyl-2-(4-(pyridin-4-yl)-2H-indazol-2-yl)propanamide]
> 500 nM	O=C(NO)C(Cc1ccccc1)n1cc2c(N3CCOCC3)cccc2n1 (centres unmarked) [Compound I-0059, N-hydroxy-2-(4-morpholino-2H-indazol-2-yl)-3-phenylpropanamide]
> 500 nM	O=C(NO)C(Cc1ccccc1)n1cc2c(-c3ccccc3)cccc2n1 (centres unmarked) [Compound I-0060, N-hydroxy-3-phenyl-2-(4-phenyl-2H-indazol-2-yl)propanamide]
200 to 500 nM	Cn1nccc1-c1cccc2nn(C(Cc3ccccc3)C(=O)NO)cc12 (centres unmarked) [Compound I-0061, N-hydroxy-2-(4-(1-methyl-1H-pyrazol-5-yl)-2H-indazol-2-yl)-3-phenylpropanamide]
> 500 nM	O=C(NO)C(Cc1ccccc1)n1cc2c(C3CC3)cccc2n1 (centres unmarked) [Compound I-0062, 2-(4-cyclopropyl-2H-indazol-2-yl)-N-hydroxy-3-phenylpropanamide]
200 to 500 nM	O=C(NO)C(Cc1ccccc1)n1cc2c(-c3cncnc3)cccc2n1 (centres unmarked) [Compound I-0063, N-hydroxy-3-phenyl-2-(4-(pyrimidin-5-yl)-2H-indazol-2-yl)propanamide]
> 500 nM	Cc1cccc2nn(C(Cc3ccccc3)C(=O)NO)cc12 (centres unmarked) [Compound I-0064, N-hydroxy-2-(4-methyl-2H-indazol-2-yl)-3-phenylpropanamide]
> 500 nM	CN1CCC(c2cccc3nn(C(Cc4ccccc4)C(=O)NO)cc23)CC1 (centres unmarked) [Compound I-0065, N-hydroxy-2-(4-(1-methylpiperidin-4-yl)-2H-indazol-2-yl)-3-phenylpropanamide]
> 500 nM	O=C(NO)C(Cc1ccccc1)n1cc2cccc(-c3ccccc3)c2n1 (centres unmarked) [Compound I-0066, N-hydroxy-3-phenyl-2-(7-phenyl-2H-indazol-2-yl)propanamide]
50 to 200 nM	Cn1nccc1-c1cccc2cn(C(Cc3ccccc3)C(=O)NO)nc12 (centres unmarked) [Compound I-0067, N-hydroxy-2-(7-(1-methyl-1H-pyrazol-5-yl)-2H-indazol-2-yl)-3-phenylpropanamide]
200 to 500 nM	O=C(NO)C(Cc1ccccc1)n1cc2cccc(Br)c2n1 (centres unmarked) [Compound I-0068, 2-(7-bromo-2H-indazol-2-yl)-N-hydroxy-3-phenylpropanamide]
50 to 200 nM	Cn1nccc1-c1nccc2c1cnn2C(Cc1ccccc1)C(=O)NO (centres unmarked) [Compound I-0069, N-hydroxy-2-(4-(1-methyl-1H-pyrazol-5-yl)-1H-pyrazolo[4,3-c]pyridin-1-yl)-3-phenylpropanamide]
50 to 200 nM	O=C(NO)C(Cc1ccccc1)n1ncc2c(-c3ccncc3)nccc21 (centres unmarked) [Compound I-0070, N-hydroxy-3-phenyl-2-(4-(pyridin-4-yl)-1H-pyrazolo[4,3-c]pyridin-1-yl)propanamide]

More lines, now with the values behind:

Compound	IC50
Cc1cc2cn(C(Cc3ccccc3)C(=O)NO)nc2cc1Br (centres unmarked) [Compound I-0039, 2-(6-bromo-5-methyl-2H-indazol-2-yl)-N-hydroxy-3-phenylpropanamide]	> 500 nM
Cc1ccc2cn(C(Cc3ccccc3)C(=O)NO)nc2c1 (centres unmarked) [Compound I-0040, N-hydroxy-2-(6-methyl-2H-indazol-2-yl)-3-phenylpropanamide]	> 500 nM
O=C(NO)C(Cc1ccccc1)n1cnc2ccccc21 (centres unmarked) [Compound I-0041, 2-(1H-benzo[d]imidazol-1-yl)-N-hydroxy-3-phenylpropanamide]	200 to 500 nM
O=C(NO)C(Cc1ccccc1)n1ncc2cnccc21 (centres unmarked) [Compound I-0042, N-hydroxy-3-phenyl-2-(1H-pyrazolo[4,3-c]pyridin-1-yl)propanamide]	200 to 500 nM
O=C(NO)C(Cc1ccccc1)n1cc2cnccc2n1 (centres unmarked) [Compound I-0043, N-hydroxy-3-phenyl-2-(2H-pyrazolo[4,3-c]pyridin-2-yl)propanamide]	> 500 nM
Cn1cc(-c2ccc3nn(C(Cc4ccccc4)C(=O)NO)c(C#CC4CC4)c3c2)cn1 (centres unmarked) [Compound I-0044, 2-(3-(cyclopropylethynyl)-5-(1-methyl-1H-pyrazol-4-yl)-2H-indazol-2-yl)-N-hydroxy-3-phenylpropanamide]	50 to 200 nM
O=C(NO)C(Cc1ccccc1)n1nc2ccc(-c3cccnc3)cc2c1C#CC1CC1 (centres unmarked) [Compound I-0045, 2-(3-(cyclopropylethynyl)-5-(pyridin-3-yl)-2H-indazol-2-yl)-N-hydroxy-3-phenylpropanamide]	50 to 200 nM
COc1ccc(-c2ccc3nn(C(Cc4ccccc4)C(=O)NO)c(C#CC4CC4)c3c2)cn1 (centres unmarked) [Compound I-0046, 2-(3-(cyclopropylethynyl)-5-(6-methoxypyridin-3-yl)-2H-indazol-2-yl)-N-hydroxy-3-phenylpropanamide]	200 to 500 nM
Cn1nccc1-c1ccc2cn(C(Cc3ccccc3)C(=O)NO)nc2c1 (centres unmarked) [Compound I-0047, N-hydroxy-2-(6-(1-methyl-1H-pyrazol-5-yl)-2H-indazol-2-yl)-3-phenylpropanamide]	200 to 500 nM
CN1CCC(c2ccc3cn(C(Cc4ccccc4)C(=O)NO)nc3c2)CC1 (centres unmarked) [Compound I-0048, N-hydroxy-2-(6-(1-methylpiperidin-4-yl)-2H-indazol-2-yl)-3-phenylpropanamide]	> 500 nM
Cc1ccc2nn(C(Cc3ccccc3)C(=O)NO)cc2c1 (centres unmarked) [Compound I-0049, N-hydroxy-2-(5-methyl-2H-indazol-2-yl)-3-phenylpropanamide]	> 500 nM
O=C(NO)C(Cc1ccccc1)n1cc2cc(-c3ccncc3)ccc2n1 (centres unmarked) [Compound I-0050, N-hydroxy-3-phenyl-2-(5-(pyridin-4-yl)-2H-indazol-2-yl)propanamide]	200 to 500 nM
O=C(NO)C(Cc1ccccc1)n1cc2cc(-c3cncnc3)ccc2n1 (centres unmarked) [Compound I-0051, N-hydroxy-3-phenyl-2-(5-(pyrimidin-5-yl)-2H-indazol-2-yl)propanamide]	200 to 500 nM
CN1CC=C(c2cccc3nn(C(Cc4ccccc4)C(=O)NO)cc23)CC1 (centres unmarked) [Compound I-0057, N-hydroxy-2-(4-(1-methyl-1,2,3,6-tetrahydropyridin-4-yl)-2H-indazol-2-yl)-3-phenylpropanamide]	> 500 nM

— patent US10723705B2, “Heterocyclic compounds and uses thereof” (Incyte Corporation, priority 2015, dated 2020)
